Source: the supplement of paper PMC10307832

Legend:
Assay in all cases: relative viability (nuclei count vs DMSO), 5 days (fraction); higher = more cells survive
Afatinib + Lapatinib = compound: CN(C)C/C=C/C(=O)Nc1cc2c(Nc3ccc(F)c(Cl)c3)ncnc2cc1O[C@H]1CCOC1 [Afatinib] + CS(=O)(=O)CCNCc1ccc(-c2ccc3ncnc(Nc4ccc(OCc5cccc(F)c5)c(Cl)c4)c3c2)o1 [Lapatinib] (partner 2 µM)
Procedure, shortened: (§1)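 Each reported value is a median over duplicate plates. It expresses relative viability: treated-well nuclei count divided by vehicle-well nuclei count. Lung cancer cell lines in 1536-well plates were dosed by pin tool a day after seeding, alone with one drug or with a fixed anchor-drug dose plus five library-drug doses (not always all listed) in √10 steps, and nuclei were counted after 5 days.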

Afatinib + Crizotinib = compound: CN(C)C/C=C/C(=O)Nc1cc2c(Nc3ccc(F)c(Cl)c3)ncnc2cc1O[C@H]1CCOC1 [Afatinib] + C[C@@H](Oc1cc(-c2cnn(C3CCNCC3)c2)cnc1N)c1c(Cl)ccc(F)c1Cl [Crizotinib] (partner 1 µM)
Procedure, shortened: as §1

Afatinib + Dasatinib = compound: CN(C)C/C=C/C(=O)Nc1cc2c(Nc3ccc(F)c(Cl)c3)ncnc2cc1O[C@H]1CCOC1 [Afatinib] + Cc1nc(Nc2ncc(C(=O)Nc3c(C)cccc3Cl)s2)cc(N2CCN(CCO)CC2)n1 [Dasatinib] (partner 0.075 µM)
Procedure, shortened: as §1

Afatinib + Pemetrexed = compound: CN(C)C/C=C/C(=O)Nc1cc2c(Nc3ccc(F)c(Cl)c3)ncnc2cc1O[C@H]1CCOC1 [Afatinib] + Nc1nc2[nH]cc(CCc3ccc(C(=O)N[C@@H](CCC(=O)O)C(=O)O)cc3)c2c(=O)[nH]1 [Pemetrexed] (partner 0.2 µM)
Procedure, shortened: as §1

| Cell Line | relative viability (Afatinib + Lapatinib; first compound 0.005 µM) | relative viability (Afatinib + Lapatinib; first compound 0.01581 µM) | relative viability (Afatinib + Lapatinib; first compound 0.05 µM) | relative viability (Afatinib + Lapatinib; first compound 0.1581 µM) | relative viability (Afatinib + Lapatinib; first compound 0.5 µM) | relative viability (Afatinib + Crizotinib; first compound 0.005 µM) | relative viability (Afatinib + Crizotinib; first compound 0.01581 µM) | relative viability (Afatinib + Crizotinib; first compound 0.05 µM) | relative viability (Afatinib + Crizotinib; first compound 0.1581 µM) | relative viability (Afatinib + Crizotinib; first compound 0.5 µM) | relative viability (Afatinib + Dasatinib; first compound 0.005 µM) | relative viability (Afatinib + Dasatinib; first compound 0.01581 µM) | relative viability (Afatinib + Dasatinib; first compound 0.05 µM) | relative viability (Afatinib + Dasatinib; first compound 0.1581 µM) | relative viability (Afatinib + Dasatinib; first compound 0.5 µM) | relative viability (Afatinib + Pemetrexed; first compound 0.005 µM) | relative viability (Afatinib + Pemetrexed; first compound 0.01581 µM) | relative viability (Afatinib + Pemetrexed; first compound 0.05 µM) | relative viability (Afatinib + Pemetrexed; first compound 0.1581 µM) | relative viability (Afatinib + Pemetrexed; first compound 0.5 µM) |
| --- | --- | --- | --- | --- | --- | --- | --- | --- | --- | --- | --- | --- | --- | --- | --- | --- | --- | --- | --- | --- |
| LCLC-97TM1 | 1.11 | 0.837 | 1.11 | 0.688 | 0.568 | 0.491 | 0.337 | 0.329 | 0.242 | 0.308 | 0.926 | 0.766 | 0.812 | 0.709 | 0.842 | 0.17 | 0.187 | 0.191 | 0.21 | 0.152 |
| HARA | 0.727 | 0.668 | 0.608 | 0.688 | 0.888 | 0.884 | 1.04 | 0.763 | 0.494 | 0.783 | 0.179 | 0.182 | 0.217 | 0.178 | 0.209 | 0.21 | – | 0.185 | 0.217 | 0.225 |
| HCC-78 | 0.838 | 0.661 | 0.844 | 0.659 | 0.883 | 0.308 | 0.279 | 0.245 | 0.252 | 0.221 | 0.445 | 0.341 | 0.366 | 0.29 | 0.331 | 0.924 | 0.869 | 0.904 | 0.915 | 0.902 |
| NCI-H1666 | 0.592 | 0.621 | 0.618 | – | 0.834 | 0.879 | 0.885 | 0.661 | – | 0.676 | 0.784 | 0.772 | 0.672 | 0.672 | 0.776 | 0.85 | 0.768 | 0.843 | 0.704 | 0.69 |
| NCI-H2347 | 0.934 | 0.985 | 0.832 | 0.987 | 0.996 | 0.828 | 0.937 | 0.657 | 0.607 | 0.724 | 0.34 | 0.318 | 0.453 | 0.269 | 0.288 | 0.401 | 0.414 | 0.426 | 0.45 | 0.392 |
| NCI-H838 | 0.986 | 0.953 | 1.07 | 1.08 | 1.06 | 0.782 | 0.87 | 0.901 | 0.791 | 0.937 | 0.33 | 0.319 | 0.331 | 0.203 | 0.269 | 0.246 | 0.243 | 0.259 | 0.243 | 0.259 |
| NCI-H2023 | 0.744 | 0.853 | 0.896 | 0.809 | 0.964 | 0.576 | 0.487 | 0.407 | 0.402 | 0.487 | 0.61 | 0.498 | 0.492 | 0.445 | 0.546 | 0.222 | 0.209 | 0.231 | 0.189 | 0.208 |
| 201T | 1.07 | 1.04 | 0.904 | 1.01 | 1.08 | 0.981 | 0.863 | 0.959 | 0.958 | 1 | 0.589 | 0.517 | 0.581 | 0.56 | 0.544 | 0.294 | 0.353 | 0.379 | 0.38 | 0.31 |
| NCI-H1915 | 1.02 | 0.944 | 0.994 | 0.959 | 0.876 | 1 | 0.963 | 0.872 | 0.957 | 0.894 | 0.361 | 0.347 | 0.313 | 0.301 | 0.304 | 0.532 | 0.491 | 0.468 | 0.52 | 0.427 |
| NCI-H2009 | 0.964 | 0.934 | 1.07 | 0.995 | 1.01 | 1.07 | 0.977 | 1.12 | 1.04 | 1.04 | 0.306 | 0.295 | 0.341 | 0.259 | 0.285 | 1.04 | 1.01 | 0.977 | 1.03 | 1.01 |
| BEN | 0.7 | 0.694 | 0.832 | 0.705 | 0.804 | 0.929 | 0.941 | 1.02 | 0.908 | 0.916 | 0.337 | 0.283 | 0.323 | 0.336 | 0.313 | 0.801 | 0.785 | 0.753 | 0.772 | 0.819 |
| PC-14 | 0.295 | 0.222 | 0.258 | 0.301 | 0.288 | 0.419 | 0.275 | 0.257 | 0.239 | 0.242 | 0.0312 | 0.0316 | 0.0366 | 0.0312 | 0.0453 | 0.155 | 0.155 | 0.164 | 0.165 | 0.149 |
| SK-MES-1 | 0.423 | 0.393 | 0.459 | 0.444 | 0.467 | 0.977 | 0.879 | 0.626 | 0.485 | 0.466 | 0.247 | 0.203 | 0.18 | 0.139 | 0.16 | 0.386 | 0.707 | 0.472 | 0.438 | 0.434 |
| NCI-H727 | 0.892 | 0.861 | 0.894 | 0.639 | 0.948 | 0.804 | 0.802 | 0.53 | 0.541 | 0.583 | 0.366 | – | 0.204 | 0.282 | 0.249 | – | – | – | – | – |
| NCI-H1355 | 1.03 | 1.08 | 1 | 0.945 | 1.03 | 1.16 | 0.983 | 1.01 | 0.792 | 0.816 | 0.665 | 0.742 | 0.68 | 0.642 | 0.643 | 1.07 | 1.01 | 0.946 | 0.906 | 0.974 |
| NCI-H1975 | 0.895 | 0.685 | 0.529 | 0.283 | 0.239 | 1.14 | 1.07 | 1.01 | 0.45 | 0.307 | 0.455 | 0.386 | 0.306 | 0.15 | 0.11 | 0.287 | 0.28 | 0.295 | 0.276 | 0.209 |
